In PubChem BioAssay AID1963829 (Molecular Pharmacology Branch, DTP, NCI, 2024):
pIC50: −log10 of the molar value.

Tested on: 935938-334-R-J1-PDC complex spheroid viability
Assay: Anticancer human tumor 935938-334-R-J1-PDC patient-derived small intestine adenocarcinoma cell line growth inhibition [POLQ]
Settings: for pIC50: curve of first compound; for viability, T/C: stronger effect = lower value
Experimental: Multicellular complex tumor spheroid response to Polymerase (POL) inhibitors (novobiocin, ART-558, RP6685) in combination with a variety of drugs and investigational agents in selected tumor cell lines
The POL inhibitors (novobiocin, ART-558, and RP6685) were evaluated both individually and in combination with standard of care and investigational anticancer small molecules within a complex spheroid model of solid tumors. . Complex spheroids include a stromal component modeled by human endothelial cells (HUVEC) and fibroblasts modeled by human mesenchymal stem cells (MSCs). The concentration ranges selected for each drug and investigational agent were based upon clinically achievable concentrations if the clinical Cmax of the agent was known.
Compounds. The drugs and investigational agents: novobiocin (NSC847541), ART-558 (NSC835418), RP-6685 (NSC848927), peposertib (NSC802822), ceralasertib (NSC780249), elimusertib (NSC800525), camonsertib (NSC841442), AZD-1390 (NSC803789), olaparib (NSC753686), talazoparib (NSC767125), rucaparib (NSC756644), sotorasib (NSC818433), MRTX-1133 (NSC836407), SN-38 (NSC673596), topotecan (NSC609699), epotoside (NSC141540), doxorubicin (NSC123127), gemcitabine (NSC613327), 5-fluorouracil (NSC19893), paclitaxel (NSC125973), vemurafenib (NSC761431), MSA-2 (NSC828583), SN-011 (NSC837082), adavosertib (NSC754352), prexasertib (NSC758257), carboplatin (NSC241240) and oxaliplatin (NSC266046), were obtained from the National Cancer Institute (NCI) Developmental Therapeutics Program Chemical Repository (21). The FDA-approved anticancer drug set is available from the Developmental Therapeutics Program at https://dtp.cancer.gov/organization/dscb/obtaining/. […] The stock solutions were prepared in dimethyl sulfoxide (DMSO, Sigma-Aldrich, St. Louis, MO, cat. D2650), except for the platinum compounds which were prepared in saline (Quality Biological, Gaithersburg, MD, cat. 114-055-101), at 800-fold the tested concentration and stored at -70 degrees C prior to their use. All drugs and investigational agents were tested over a range starting from a high concentration at or near the clinical Cmax and decreasing in half-log increments. If the clinical Cmax for an agent had not been determined, the highest concentration tested was 10 microM, except for SN-38, which was tested at a high concentration of 1 microM.
Cell Culture. All cells were maintained in an incubator at 37 degrees C and 5% CO2 with 95% humidity. The PDC lines were cultured according to standard operating procedures established by the NCI PDMR (https://pdmr.cancer.gov). Table 3 of the manuscript, lists the cell lines along with the number of the three cell types plated to form the mct-spheroids and media for tumor cell growth. After thawing, all PDC lines, except 997537-175-T-J1-PDC and 415267-285-R-J2-PDC, were cultured in Matrigel-coated flasks prepared with a working solution of 1X Ham's F-12 nutrient mix, without supplementation (Thermo Fisher Scientific, cat. 11765054), 100 U/mL penicillin-streptomycin (Thermo Fisher Scientific, cat. 15140122), and 2.5% Matrigel (Corning Inc., Corning, NY, cat. 354248) for the first three passages. The two PDC lines 997537-175-T-J1-PDC and 415267-285-R-J2-PDC were cultured on uncoated flasks. The 857933-349-R-J2-PDC line was cultured in 6C/Colon 1B media containing advanced DMEM/F-12 (Thermo Fisher Scientific, cat. 12634028), 10 mM HEPES (Thermo Fisher Scientific, cat. 15630080), 1X GlutaMAX supplement (Thermo Fisher Scientific, cat. 35050061), 0.1 mg/mL primocin (InvivoGen, San Diego, CA, cat. ant-pm-2), 10% defined fetal bovine serum, heat inactivated (HyClone Laboratories Inc., Logan, UT, cat. SH30070.03HI), 50% L-WRN conditioned media (ATCC, cat. CRL-3276), 1.25 mM N-Acetyl-L-cysteine (Sigma-Aldrich, cat. A9165), 10 mM nicotinamide (Sigma-Aldrich, cat. N0636), 1X B-27 supplement (Thermo Fisher Scientific, cat. 17504044), 1X N-2 supplement (Thermo Fisher Scientific, cat. […]

[1] = second compound 0.0316 µM, first compound 0.0316 µM
[2] = second compound 0.0316 µM, first compound 0.1 µM
[3] = second compound 0.0316 µM, first compound 0.316 µM
[4] = second compound 0.0316 µM, first compound 1 µM
[5] = second compound 0.0316 µM, first compound 3.16 µM
[6] = second compound 0.0316 µM, first compound 10 µM
[7] = second compound 0.1 µM, first compound 0.0316 µM
[8] = second compound 0.1 µM, first compound 0.1 µM
[9] = second compound 0.1 µM, first compound 0.316 µM
[10] = second compound 0.1 µM, first compound 1 µM
[11] = second compound 0.1 µM, first compound 3.16 µM
[12] = second compound 0.1 µM, first compound 10 µM
[13] = second compound 0.316 µM, first compound 0.0316 µM
[14] = second compound 0.316 µM, first compound 0.1 µM
[15] = second compound 0.316 µM, first compound 0.316 µM
[16] = second compound 0.316 µM, first compound 1 µM
[17] = second compound 0.316 µM, first compound 3.16 µM
[18] = second compound 0.316 µM, first compound 10 µM
[19] = second compound 1 µM, first compound 0.0316 µM
[20] = second compound 1 µM, first compound 0.1 µM
[21] = second compound 1 µM, first compound 0.316 µM
[22] = second compound 1 µM, first compound 1 µM
[23] = second compound 1 µM, first compound 3.16 µM
[24] = second compound 1 µM, first compound 10 µM
[25] = second compound 3.16 µM, first compound 0.0316 µM
[26] = second compound 3.16 µM, first compound 0.1 µM
[27] = second compound 3.16 µM, first compound 0.316 µM
[28] = second compound 3.16 µM, first compound 1 µM
[29] = second compound 3.16 µM, first compound 3.16 µM
[30] = second compound 3.16 µM, first compound 10 µM
[31] = second compound 10 µM, first compound 0.0316 µM
[32] = second compound 10 µM, first compound 0.1 µM
[33] = second compound 10 µM, first compound 0.316 µM
[34] = second compound 10 µM, first compound 1 µM
[35] = second compound 10 µM, first compound 3.16 µM
[36] = second compound 10 µM, first compound 10 µM
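Note: spheroids exposed to drugs for seven days before viability read.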
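Throughout, for viability, T/C: 100% = DMSO vehicle control wells.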

## CC(=O)O[C@H]1C(=O)[C@@]2(C)[C@H]([C@H](OC(=O)c3ccccc3)[C@]3(O)C[C@H](OC(=O)[C@H](O)[C@@H](NC(=O)c4ccccc4)c4ccccc4)C(C)=C1C3(C)C)[C@]1(OC(C)=O)CO[C@@H]1C[C@@H]2O + COC1C(OC(N)=O)C(O)C(Oc2ccc3c(O)c(NC(=O)c4ccc(O)c(CC=C(C)C)c4)c(=O)oc3c2C)OC1(C)C
Second compound 0.0316 µM
  pIC50: > 8.02
Second compound 0.1 µM
  pIC50: > 8.02
Second compound 0.316 µM
  pIC50: > 8.02
Second compound 1 µM
  pIC50: > 8.02
Second compound 3.16 µM
  pIC50: > 8.02
Second compound 10 µM
  pIC50: > 8.02
Second compound 0.0316 µM, first compound 0.00949 µM
  viability, T/C: 33.5%
Second compound 0.0316 µM, first compound 0.03 µM
  viability, T/C: 21.4%
Second compound 0.0316 µM, first compound 0.0949 µM
  viability, T/C: 14.8%
Second compound 0.0316 µM, first compound 0.3 µM
  viability, T/C: 16.4%
Second compound 0.0316 µM, first compound 0.949 µM
  viability, T/C: 16.6%
Second compound 0.0316 µM, first compound 3 µM
  viability, T/C: 19.3%
Second compound 0.1 µM, first compound 0.00949 µM
  viability, T/C: 35.7%
Second compound 0.1 µM, first compound 0.03 µM
  viability, T/C: 21.5%
Second compound 0.1 µM, first compound 0.0949 µM
  viability, T/C: 16.9%
Second compound 0.1 µM, first compound 0.3 µM
  viability, T/C: 17.5%
Second compound 0.1 µM, first compound 0.949 µM
  viability, T/C: 16.5%
Second compound 0.1 µM, first compound 3 µM
  viability, T/C: 18.1%
Second compound 0.316 µM, first compound 0.00949 µM
  viability, T/C: 37.9%
Second compound 0.316 µM, first compound 0.03 µM
  viability, T/C: 18.4%
Second compound 0.316 µM, first compound 0.0949 µM
  viability, T/C: 16.6%
Second compound 0.316 µM, first compound 0.3 µM
  viability, T/C: 13.8%
Second compound 0.316 µM, first compound 0.949 µM
  viability, T/C: 17.9%
Second compound 0.316 µM, first compound 3 µM
  viability, T/C: 18.2%
Second compound 1 µM, first compound 0.00949 µM
  viability, T/C: 34.6%
Second compound 1 µM, first compound 0.03 µM
  viability, T/C: 19.5%
Second compound 1 µM, first compound 0.0949 µM
  viability, T/C: 17.4%
Second compound 1 µM, first compound 0.3 µM
  viability, T/C: 17.2%
Second compound 1 µM, first compound 0.949 µM
  viability, T/C: 16.2%
Second compound 1 µM, first compound 3 µM
  viability, T/C: 16.6%
Second compound 3.16 µM, first compound 0.00949 µM
  viability, T/C: 32.8%
Second compound 3.16 µM, first compound 0.03 µM
  viability, T/C: 21.3%
Second compound 3.16 µM, first compound 0.0949 µM
  viability, T/C: 14.9%
Second compound 3.16 µM, first compound 0.3 µM
  viability, T/C: 18.2%
Second compound 3.16 µM, first compound 0.949 µM
  viability, T/C: 17.5%
Second compound 3.16 µM, first compound 3 µM
  viability, T/C: 18.4%
Second compound 10 µM, first compound 0.00949 µM
  viability, T/C: 36.6%
Second compound 10 µM, first compound 0.03 µM
  viability, T/C: 19.9%
Second compound 10 µM, first compound 0.0949 µM
  viability, T/C: 14.4%
Second compound 10 µM, first compound 0.3 µM
  viability, T/C: 16.6%
Second compound 10 µM, first compound 0.949 µM
  viability, T/C: 14.6%
Second compound 10 µM, first compound 3 µM
  viability, T/C: 16.4%

## COc1cc(C2c3cc4c(cc3C(OC3OC5COC(C)OC5C(O)C3O)C3COC(=O)C23)OCO4)cc(OC)c1O (stereo unspecified) + COC1C(OC(N)=O)C(O)C(Oc2ccc3c(O)c(NC(=O)c4ccc(O)c(CC=C(C)C)c4)c(=O)oc3c2C)OC1(C)C
Second compound 0.0316 µM
  pIC50: 5.98
Second compound 0.1 µM
  pIC50: 6.17
Second compound 0.316 µM
  pIC50: 6.16
Second compound 1 µM
  pIC50: 6.24
Second compound 3.16 µM
  pIC50: 6.05
Second compound 10 µM
  pIC50: 6.15
[1]
  viability, T/C: 97.7%
[2]
  viability, T/C: 81.4%
[3]
  viability, T/C: 70.2%
[4]
  viability, T/C: 47.3%
[5]
  viability, T/C: 39.5%
[6]
  viability, T/C: 29.4%
[7]
  viability, T/C: 105%
[8]
  viability, T/C: 94%
[9]
  viability, T/C: 67.3%
[10]
  viability, T/C: 41.8%
[11]
  viability, T/C: 30.8%
[12]
  viability, T/C: 30.7%
[13]
  viability, T/C: 134%
[14]
  viability, T/C: 85.2%
[15]
  viability, T/C: 80.4%
[16]
  viability, T/C: 32.8%
[17]
  viability, T/C: 27.5%
[18]
  viability, T/C: 26%
[19]
  viability, T/C: 105%
[20]
  viability, T/C: 126%
[21]
  viability, T/C: 62.2%
[22]
  viability, T/C: 57.6%
[23]
  viability, T/C: 26.7%
[24]
  viability, T/C: 30.6%
[25]
  viability, T/C: 78%
[26]
  viability, T/C: 108%
[27]
  viability, T/C: 83.3%
[28]
  viability, T/C: 46.7%
[29]
  viability, T/C: 28.9%
[30]
  viability, T/C: 32.6%
[31]
  viability, T/C: 96.9%
[32]
  viability, T/C: 75.9%
[33]
  viability, T/C: 68.7%
[34]
  viability, T/C: 43.9%
[35]
  viability, T/C: 27.4%
[36]
  viability, T/C: 35.5%

## COc1cccc2c1C(=O)c1c(O)c3c(c(O)c1C2=O)CC(O)(C(=O)CO)CC3OC1CC(N)C(O)C(C)O1 (stereo unspecified) + COC1C(OC(N)=O)C(O)C(Oc2ccc3c(O)c(NC(=O)c4ccc(O)c(CC=C(C)C)c4)c(=O)oc3c2C)OC1(C)C
Second compound 0.0316 µM
  pIC50: 6.66
Second compound 0.1 µM
  pIC50: 6.66
Second compound 0.316 µM
  pIC50: 6.72
Second compound 1 µM
  pIC50: 6.64
Second compound 3.16 µM
  pIC50: 6.68
Second compound 10 µM
  pIC50: 6.67
[1]
  viability, T/C: 84.4%
[2]
  viability, T/C: 93.7%
[3]
  viability, T/C: 30.8%
[4]
  viability, T/C: 19.2%
[5]
  viability, T/C: 5.61%
[6]
  viability, T/C: 7.78%
[7]
  viability, T/C: 75.3%
[8]
  viability, T/C: 98.3%
[9]
  viability, T/C: 33.4%
[10]
  viability, T/C: 20.2%
[11]
  viability, T/C: 4.7%
[12]
  viability, T/C: 4.37%
[13]
  viability, T/C: 67.5%
[14]
  viability, T/C: 93.3%
[15]
  viability, T/C: 25.9%
[16]
  viability, T/C: 20.4%
[17]
  viability, T/C: 6.24%
[18]
  viability, T/C: 5.64%
[19]
  viability, T/C: 66.8%
[20]
  viability, T/C: 103%
[21]
  viability, T/C: 36%
[22]
  viability, T/C: 23.7%
[23]
  viability, T/C: 6.64%
[24]
  viability, T/C: 5.44%
[25]
  viability, T/C: 52.7%
[26]
  viability, T/C: 113%
[27]
  viability, T/C: 32.1%
[28]
  viability, T/C: 22.1%
[29]
  viability, T/C: 6.52%
[30]
  viability, T/C: 3.3%
[31]
  viability, T/C: 61.5%
[32]
  viability, T/C: 122%
[33]
  viability, T/C: 29%
[34]
  viability, T/C: 21.3%
[35]
  viability, T/C: 5.32%
[36]
  viability, T/C: 5.87%
